Experimental data as given in PubChem BioAssay AID1996.
≈ marks a conversion by molar mass, not a printed value.

Conditions: buffer; pH 7.4; 200.0 µM

SMILES	solubility kinetic [mg/mL]
Cc1ccc(C(=O)N2CCN(c3ncccn3)CC2)cc1	> 0.0424
COC(=O)CSc1nnc(CCc2ccccc2)n1C	> 0.0437
COC(=O)CSc1nc(NC(C)(C)C)nc(N(C)C)n1	0.0387 (≈ 129 µM)
CC(C)c1ccc(NC(=S)N2CCCC2)cc1	> 0.0373
CC(C)(C)OC(=O)NCCc1n[nH]c(=S)o1	> 0.0368
O=C(OCC(=O)N1CCCC1)c1cc(=O)c2ccccc2o1	> 0.0452
CN(C)CC[n+]1ccc(C(=O)c2ccccc2)cc1.Cl.[Cl-]	> 0.0491
CN(C)C(=O)C[n+]1ccc(C(N)=O)cc1.[Cl-]	0.0354
O=C1C2C3C=CC(C3)C2C(=O)N1Nc1ccccc1 (centres undefined)	> 0.0381
COc1ccc(C(=O)OCC(=O)c2ccc3c(c2)NC(=O)CO3)cc1[N+](=O)[O-]	0.0027 (≈ 6.99 µM)
Cc1ccc(CN2CC(C(=O)Nc3ccc(C)cn3)CC2=O)cc1 (centres undefined)	> 0.0485
Nc1ccc(C(=O)CC(=O)Nc2ccc(Cl)cc2)cc1	0.0143 (≈ 49.5 µM)
Cc1ccc(-c2nc3cc(N)ccc3o2)cc1Br	0.0003 (≈ 0.99 µM)
Cc1cc(F)ccc1S(=O)(=O)NCC1CC2CCC1C2 (centres undefined)	0.0042 (≈ 14.1 µM)
COc1ccc(C(=O)Nc2ccc3ccccc3c2)c(OC)c1	< 0.0007
O=C(Nc1ccccc1)N(c1ccccc1)C1C=CS(=O)(=O)C1 (centres undefined)	> 0.0493
O=C(NCC(O)c1ccccc1)c1cccs1 (centres undefined)	> 0.0371
COc1ccc(CNCc2cccc(C)c2)cc1.O=C(O)C(=O)O	> 0.0497
CC1CCC(NC(=O)CCNS(=O)(=O)c2ccccc2)CC1 (centres undefined)	> 0.0487
O=C(CN1CCOCC1)Nc1ccc(Cl)cc1	> 0.0382

SMILES	solubility kinetic [mg/mL]
C#CCOn1c(-n2nc(C)cc2C)nc2ccccc2c1=O	> 0.0441
COc1ccc(C(=O)COC(=O)c2cc(C)no2)c(OC)c1	> 0.0458
CN(C)CCSc1nc(-c2ccccc2)nc2c1CCCC2	0.0179 (≈ 57.1 µM)
CCc1ccccc1NC(=S)N(CCc1ccncc1)C(C)C	0.044 (≈ 134 µM)
O=C(Nc1ccc2c(c1)CCC2)c1ccc(Br)s1	< 0.0007
CC(C)(C)c1ccc(C(=O)NC(=O)COC(=O)c2ccc(Br)o2)cc1	0.0125 (≈ 30.6 µM)
CC(C)CCN(C(=S)Nc1cccc(F)c1)C(C)c1cccs1 (centres undefined)	0.0032 (≈ 9.13 µM)
CCC(=O)c1c(NC(C)C)cc(C)oc1=O	> 0.0335
CCCCC1=NN(C(=O)c2ccncc2)C(O)(C(F)(F)F)C1 (centres undefined)	> 0.0473
CCC1(CC)N=C(c2ccccc2)C(=S)N1	> 0.0349
CNc1oc(/C=C/c2cccc(OC)c2)nc1C#N	0.0037 (≈ 14.5 µM)
Cc1ccccc1-n1c2nc(=O)n(C)c(=O)c-2cc2ccccc21	> 0.0476
CCCN(CCC)C(=O)c1cc2c(=O)[nH]c3ccc(C)cc3c2s1	< 0.0004
CC(NC(=O)COC(=O)c1ccc(S(=O)(=O)N2CCOCC2)cc1)c1ccccc1 (centres undefined)	0.0132 (≈ 30.5 µM)
CCC(=O)N(CCC1(c2ccccc2OC)CCOC(C(C)C)C1)Cc1ccco1 (centres undefined)	0.0214 (≈ 51.7 µM)
Cc1cc(NC(=O)COC(=O)C(C)Oc2ccc(Cl)cc2Cl)no1 (centres undefined)	0.0422 (≈ 113 µM)
Cc1ccc(SCCSc2nc(C)cc(=O)[nH]2)cc1	0.0021 (≈ 7.18 µM)
Cc1cc(C)c(C)c(S(=O)(=O)NC(C(=O)O)C(C)C)c1C (centres undefined)	> 0.047
Cc1cc2ccc3ccccc3c2cc1CN(C)C.Cl	0.0245
CCN(Cc1ccccc1)C(=O)c1[nH]c2ccc(OC)cc2c1C	0.0312 (≈ 96.8 µM)

SMILES	solubility kinetic [mg/mL]
Clc1ccc(OCC#CCN2CCOCC2)cc1.O=C(O)C(=O)O	0.0503
C1CNC(C23CC4CC(CC(C4)C2)C3)=N1	> 0.0306
COc1ccc2[nH]c(C(=O)N3CCc4ccccc4C3)c(C)c2c1	0.0026 (≈ 8.12 µM)
COCCn1cnc2c1c(=O)n(CC(=O)NCC(F)(F)F)c(=O)n2Cc1ccccc1	0.0399 (≈ 90.8 µM)
CC(C)c1ccc(/C=C/C(=O)NCc2ccc(S(N)(=O)=O)cc2)cc1	0.0051 (≈ 14.2 µM)
COc1cccc(CC(=O)NCCCSc2ccccc2)c1	0.0473 (≈ 150 µM)
COCCNc1c2c(nc3ccccc13)CCC2.Cl	> 0.0418
CN(C)c1cccc(NC(=O)NC2(C)CCS(=O)(=O)C2)c1 (centres undefined)	> 0.0467
COc1ccc(CN2C(=O)c3ccccc3C2=O)cc1C(=O)O	> 0.0467
CN1CCN(c2oc(Cc3cccc4ccccc34)nc2C#N)CC1	0.0435 (≈ 131 µM)
COc1cccc(OC)c1C(=O)Nc1sc2c(c1C(N)=O)CCCC2	0.025 (≈ 69.4 µM)
CC(C)(C)CC(=O)NCCc1csc(-c2ccccc2)n1	> 0.0454
CC(C)(C)NC(=O)COc1ccc2oc3c(c2c1)CCCC3	0.0022 (≈ 7.3 µM)
OCCN(Cc1ccccc1)c1ncnc2sccc12	> 0.0428
Cc1ccc(CNCc2cccnc2)s1.Cl	> 0.0382
CC1(C)C2CCC1(CS(=O)(=O)N1CCCC1C(=O)O)C(=O)C2 (centres undefined)	> 0.0494
CCC(C)NC(=O)c1ccc2c(Cl)c3c(nc2c1)CCC3 (centres undefined)	0.0099 (≈ 32.7 µM)
COc1ccc2c([N+](=O)[O-])c(Cl)[nH]c2c1	0.0323 (≈ 143 µM)
CCOC(=O)c1cccc(NC(=O)N2CCOCC2)c1	> 0.0417
